How the values were obtained:
Type in all cases: cell-based, human
caspase-3 = assay: Caspase 3 assay in A-549 cells; details: for Caspase-3 Conc: untreated control 66 pg/mL
Experimental: Caspases play a crucial function in the induction and completion of apoptosis. Caspase-3 is an essential caspase that cleaves different proteins in cells, resulting in apoptosis. […]
4.2.5. Caspase-3 activation assay
Allow all reagents to reach room temperature before use. Gently mix all liquid reagents prior to use. Determine the number of 8-well strips needed for the assay. Insert these in the frame(s) for current use. Add 100 μl of the Standard Diluent Buffer to the zero standard wells. Well(s) reserved for chromogen blank should be left empty. Add 100 μl of standards and controls or diluted samples to the appropriate microtiter wells. The sample dilution chosen should be optimized for each experimental system. Tap gently on side of plate to mix. Cover wells with plate cover and incubate for 2 hours at room temperature. Thoroughly aspirate or decant solution from wells and discard the liquid, Wash wells 4 times. Pipette 100 μl of Caspase-3 (Active) Detection Antibody solution into each well except the chromogen blank(s). Tap gently on the side of the plate to mix. Cover plate with plate cover and incubate for 1 hour at room temperature. Thoroughly aspirate or decant solution from wells and discard the liquid, Wash wells 4 times. Add 100 μl Anti-Rabbit IgG HRP Working Solution to each well except the chromogen blank(s). Prepare the working dilution as described in Preparing IgG HRP. Cover wells with the plate cover and incubate for 30 minutes at room temperature. Thoroughly aspirate or decant solution from wells and discard the liquid. Wash wells 4 times. Add 100 μl of Stabilized Chromoge n to each well. The liquid in the wells will begin to turn blue. Incubate for 30 minutes at room temperature and in the dark. The incubation time for chromogen substrate is often determined by the microtiter plate reader used. Many plate readers have the capacity to record a maximum optical density (O.D.) of 2.0. The O.D. values should be monitored, and the substrate reaction stopped before the O.D. of the positive wells exceeds the limits of the instrument. The O.D. values at 450 nm can only be read after the Stop Solution has been added to each well. If using a reader that records only to 2.0 O.D., stopping the assay after […]
Add 100 μl of Stop Solution to each well. Tap side of plate gently to mix. The solution in the wells should change from blue to yellow. Read the absorbance of each well at 450 nm having blanked the plate reader against a chromogen blank composed of 100 μl each of Stabilized Chromogen and Stop Solution. Read the plate within 2 hours after adding the Stop Solution. Use a curve fitting software to generate the standard curve. A four-parameter algorithm provides the best standard curve fit. Read the concentrations for unknown samples and controls from the standard curve. Multiply value(s) obtained for sample(s) by the appropriate dilution factor to correct for the dilution in step 3. Samples producing signals greater than that of the highest standard should be diluted in Standard Diluent Buffer and reanalyzed.

caspase-8 = assay: Caspase-8 level assay in A-549 cells
Experimental: See Supplementary Materials.
4.2.6. Caspase-8 activation assay […]
caspase8, and lysed with Cell Extraction Buffer. This lysate was diluted in Standard Diluent Buffer over the range of the assay and measured for human active caspase-8 content. (Cells are Plated in a density of 1.2 – 1.8 × 10,000 cells/well in a vo lume of 100µl complete growth medium + 100 ul of the tested compound per well in a 96-well plate for 24 hours before the enzyme assay for Tubulin.). The absorbance of each microwell was read on a spectro-photometer at 450 nm. A standard curve is prepared from 7human Caspase-8 standard dilutions and human Caspase-8 concentration determined. […]

Bax = Bax level assay in A-549 cells
Experimental: caspase8, and lysed with Cell Extraction Buffer. This lysate was diluted in Standard Diluent Buffer over the range of the assay and measured for human active caspase-8 content. […]
4.2.7. Bax activation assay
Bring all reagents, except the human Bax-α Standard, to room temperature for at least 30 minutes prior to opening. The human Bax-α Standard solution should not be left at room temperature for more than 10 minutes. All standards, controls and samples should be run in duplicate. Refer to the Assay Layout Sheet to determine the number of wells to be used and put any remaining wells with the desiccant back into the pouch and seal the ziploc. Store unused wells at 4 °C. Pipet 100 μL of Assay Buffer into the S0 (0 pg/mL standard) wells. Pipet 100 μL of Standards #1 through #6 into the appropriate wells. Pipet 100 μL of the Samples into the appropriate wells. Tap the plate gently to mix the contents. Seal the plate and incubate at room temperature on a plate shaker for 1 hour at ~500 rpm. Empty the contents of the wells and wash by adding 400 μL of wash solution to every well. Repeat the wash 4 more times for a total of 5 washes. After the final wash, empty or aspirate the wells and firmly tap the plate on a lint free paper towel to remove any remaining wash buffer.
Pipet 100 μL of yellow Antibody into each well, except the Blank. Seal the plate and incubate at room temperature on a plate shaker for 1 hour at ~500 rpm. Empty the contents of the wells and wash by adding 400 μL of wash solution to every well. Repeat the wash 4 more times for a total of 5 washes. After the final wash, empty or aspirate the wells and firmly tap the plate on a lint free paper towel to remove any remaining wash buffer. Add 100 μL of blue Conjugate to each well, except the Blank. Seal the plate and incubate at room temperature on a plate shaker for 30 minutes […]
Pipet 100 μL of Substrate Solution into each well. Incubate for 30 minutes at room temperature on a plate shaker at ~500 rpm. Pipet 100 μL Stop Sol ution to each well. Blank the plate reader against the Blank wells, read the optical density at 450 nm. Calculate the average net Optical Density (OD) bound for each standard and sample by subtracting the average Blank OD from the average OD for each standard and sample. Using linear graph paper, plot the Average Net OD for each standard versus Bax concentration in each standard. Approximate a straight line through the points.
The concentration of Bax in the unknowns can be determined by interpolation. […]

Bcl-2 = Bcl-2 level assay in A-549 cells
Experimental: Compounds Va and Vg were explored further for their impact on caspase-8, Bax, and Bacl-2 levels against a human epithelial cancer cell line (A-549) using doxorubicin as a reference. See Supplementary Materials. […]
4.2.8. Bcl-2inhibition assay
Mix all reagents thoroughly without foaming before use. Wash the microwells twice with approximately 300 μL Wash Buffer per well with thorough aspiration of microwell contents between washes. Take caution not to scratch the surface of the microwells. After the last wash, empty the wells and tap microwell strips on absorbent pad or paper towel to remove excess Wash Buffer. Use the microwell strips immediately after washing or place upside down on a wet absorbent paper for not longer than 15 minutes. […] Add 100 μL of Sample […]
Diluent in duplicate to all standard wells and to the blank wells. Prepare standard (1:2 dilution) in duplicate ranging from 32 ng/mL to 0.5 ng/mL. Add 100 μL of Sample Diluent, in duplicate, to the blank wells. Add 80 μL of Sample Diluent, in duplicate, to the sample wells. Add 20 μL of each Sample, in duplicate, to the designated wells. Add 50 μL of diluted biotin-conjugate to all wells, including the blank wells. Cover with a plate cover and incubate at room temperature, on a microplate shaker at 100 rpm if available, for 2 hours. Remove plate cover and empty the wells.
Wash microwell strips 3 times as described in step 2. Add 100 μL of diluted Streptavidin-HRP to all wells, including the blank wells. Cover with a plate cover and incubate at room temperature, on a microplate shaker at 100 rpm if available, for 1 hour. Remove plate cover and empty the wells.
Wash microwell strips 3 times as described in step 2. Proceed to the next step. Pipette 100 μl of mixed TMB Substrate Solution to all wells, including the blanks. Incubate the microwell strips at room temperature (18° to 25°C) for about 15 minutes, if available on a rotator set at 100 rpm.
Avoid direct exposure to intense light. The point, at which the substrate reaction is stopped, is often determined by the ELISA reader. Many ELISA readers record absorbance only up to 2.0
O.D. Therefore, the color development within individual microwells must be watched by the person running the assay and the substrate reaction stopped before positive wells are no longer properly detectable. Stop the enzyme reaction by quickly pipetting 100 μL of Stop Solution into each well, including the blank wells. It is important that the Stop Solution is spread quickly and uniformly throughout the microwells to completely inactivate the enzyme. Results must be read immediately after the Stop Solution is added or within one hour if the microwell strips are stored at 2 - 8°C in the dark. Read absorbance of each microwell on a spectrophotometer using 450 nm as the primary wavelength.

COc1cccc2c1C(=O)c1c(O)c3c(c(O)c1C2=O)C[C@@](O)(C(=O)CO)C[C@@H]3O[C@H]1C[C@H](N)[C@H](O)[C@H](C)O1 [Doxorubicin, reference compound] was tested, and the “Caspase-3 Conc” value (caspase-3) was 505 ± 4 pg/mL, the “Caspase-3 Conc” value (caspase-3; listed as doxorubicin) was 505 ± 4.0 pg/mL and the “Caspase-3 Fold Change” value (caspase-3; vs untreated control) was 7.5. For the same compound, the “Caspase-8 Conc” value (caspase-8; control 0.10) was 1.80 ng/mL, the “Caspase-8 Fold Change” value (caspase-8; vs control) was 18 and the “Bax Conc” value (Bax; control 9) was 280 pg/mL. The “Bax Fold Change” value (Bax; vs control) was 31, the “Bcl-2 Conc” value (Bcl-2; control 5) was 0.90 ng/mL and the “Bcl-2 Fold Reduction” value (Bcl-2; vs control) was 6.

Source: publication PMC10385579, “Design, Synthesis, and Biological Evaluation of Indole-2-carboxamides as Potential Multi-Target Antiproliferative Agents” (Pharmaceuticals, 2023)
